Results published in EP0238982B1, “Anticholinergic compounds, pharmaceutical compositions and method of treatment” (UNIVERSITY OF FLORIDA, priority 1986, dated 1987).
Where two headings read alike, the source gives them in different places.

Tests used:
[1] = Hydrolytic rate constants in aqueous buffered solution at pH 12, 37°C (HPLC); assay type: physicochemical; conditions: for observed First Order Hydrolytic Rate Constants (k) K ± S.E: average of three runs ± S.E.M.
Procedure: A high pressure liquid chromatography (HPLC) method was used for the determination of rate of hydrolysis of the newly prepared tropanyl esters in aqueous buffered solution at pH 12.0 and in human plasma.
(§1) The chromatographic analysis was performed in a system consisting of LCD/Milton Roy Consta Metric III metering pump and LCD UV III Monitor Detector operated at 254 nm. A 30 cm x 3.9 mm (internal diameter) reverse phase ASI/U Bondpak C18 column operated at ambient temperature was used for the analysis. The mobile phase consisted of 32% acetonitrile in 0.01 M potassium dihydrogen phosphate, 0.004 M 1-octanesulfonic acid, sodium in 0.1% acetic acid at a flow rate of 2.3 ml/min.
Sodium hydroxide and sodium dibasic phosphate were used to prepare the buffer at pH 12. The ionic strength was maintained at 0.1 M with sodium chloride.
One hundred microliters of a freshly prepared solution of the compound in methanol was added to 10 ml buffered solution, previously equilibrated to 37°C in a water bath and mixed thoroughly to make an initial concentration of 6 x 10⁻³ mol. liter⁻¹. Samples of 100 µl were injected into the column at various time intervals. […] A mobile phase of 40% acetonitrile was used to separate compounds 4 and 6 at a flow rate of 2.0 ml/min.
The previous method adapted for the hydrolysis of compounds 1, 2, 3 and 5 was used for the determination of rate of hydrolysis of compounds 4, 6 and 7. In case of compounds 4 and 6, the mobile phase is 40% acetonitrile, 0.01 M KH₂PO₄, 0.04M 1-octanesulfonic acid sodium salt and 0.1% HAC, at a flow rate 2 ml/min.

[2] = Enzymatic hydrolytic cleavage rates in human plasma at 37°C (HPLC); assay type: in vitro ADME; design: half-life: dose or concentration left out as unconfirmed; conditions: for half-life: read-out: half lives (t 1/2) (converted)
Procedure: as §1
Freshly collected plasma was used which contained about 80% plasma diluted with anticoagulant citrate phosphate dextrose solution, U.S.P.
A 100 µl volume of a freshly prepared solution of the compound in methanol was added to 10 ml plasma, previously equilibrated a 37°C in a water bath, and mixed thoroughly to result in an initial concentration of 6 x 10⁻³ mol. liter⁻¹. One ml samples of plasma were withdrawn from the test medium, mixed immediately with 3 ml ice cold acetonitrile, centrifuged and the supernatant analyzed by HPLC. The first order hydrolytic rate constant was determined by following the disappearance of the compound as function of time.

[3] = tested on: carbachol-induced spasms of strips of ileum; experiment: Anticholinergic activity in vitro: inhibition of carbachol-induced spasms of guinea pig ileum strips; assay type: cell-based; conditions: for Kb: Cavia porcellus
Procedure: The anticholinergic activity of all the new compounds was investigated in vitro by studying the inhibitory action of the drugs on carbachol-induced spasms of strips of ileum from freshly killed guinea pigs. The terminal ileum from guinea pig (200-500 g) was cut into 2-3 cm strips and suspended in freshly prepared Tyrode's solution in 40 ml organ bath. The solution was aerated with 95% oxygen and 5% carbon dioxide at 37°C. A tension of 1 g was applied to the tissue, and cumulative-response curves recorded with carbachol until constant responses were obtained. A concentration of the antagonist was then added to the bath and after 10 seconds, further concentration response curves to carbachol were established. This procedure was then repeated using increasing concentrations of the antagonist. EC₅₀ was calculated for carbachol alone and for carbachol in the presence of the various antagonist concentrations. Atropine was used as standard for comparison. The PA₂ was calculated as follows: PA₂ = log ((A)/(a)-1) -log [antagonist] [formula] A = EC₅₀ or carbachol in presence of the antagonist a = EC₅₀ for carbachol alone before adding antagonist

[4] = Enzymatic hydrolysis in rat liver homogenate at 37°C (HPLC); assay type: in vitro ADME, Sprague-Dawley rats; conditions: for Rates of hydrolysis in liver homogenate K ± S.E.: 20% rat liver homogenate; for half-life / half-life at 6000 µM: rat, liver homogenate
Procedure: The liver homogenate was prepared by the following method. Two Sprague-Dawley rats were killed by decapitation, and the livers were removed, weighed and homogenized in a tissue homogenizer in 0.11 M aqueous phosphate buffer, pH 7.4, to make 20% liver homogenate. The homogenate was centrifuged and the supernatant was used for the test. 100 l of 0.6 M solution of the ester in methanol was mixed with 10 ml of the homogenate, previously equilibrated to 37°C in a water bath, to result in an initial concentration of 6 x 10⁻³ mol/liter⁻¹. samples of 1.0 ml were withdrawn at time intervals from the medium, added immediately to 3 ml ice-cold acetonitrile, shaken vigorously, and placed in a freezer. When all samples had been collected, they were centrifuged, and each supernantant was analyzed by HPLC.

[5] = Hydrolysis of tropanyl hydrogen phenyl malonate (7) to the dibasic acid (8) at pH 12, 37°C (HPLC); assay type: physicochemical; conditions: 0.01 n naoh; 0.01 N sodium hydroxide, pH 12 at 37°C; read-out: t 1/2, hydrolysis (disappearance) of (7)
Procedure: The previously described method for the determination of rate of hydrolysis of compound (2) was followed for the determination of hydrolysis of compound (7).
The disappearance of compound (7) was followed by HPLC.
The concentration of the formed dibasic acid was determined by HPLC. 15% acetonitrile, 0.01M KH₂ PO₄ and 0.1% acetic acid was used as a mobile phase. At a flow rate of 2 ml/min, the product has a retention time of 4 min.
The collected samples after determination of rate of disappearance of compound (7) were used for the determination of rate of formation of the hydrolysis product (8). 100 microliters of the sample was injected and the formation of the product was followed by HPLC.

[6] = Hydrolysis of tertiary ethyl ester (2) and formation of its degradation product (7) at pH 12, 37°C (HPLC); assay type: physicochemical; design: dose or concentration left out as unconfirmed; conditions: 0.01 N NaOH pH at 37°C, read-out: t 1/2, hydrolysis (disappearance) of tertiary ethyl ester (2)
Procedure: The mobile phase used for the separation of compound (2) and its degradation product, the half ester (7) consisted of 32% MeCN, 0.01M KH₂PO₄, 0.004M 1-octanesulfonic acid sodium salt and 0.1% acetic acid. At flow rate of 1.5 ml/min (2) and (7) have retention times of 9 min and 4.6 min, respectively.
100 microliters of a freshly prepared solution of compound (2) in methanol was added to 10 ml buffered solution (pH 12), previously equilibrated to 37°C in a water bath to result in an initial concentration of 6 x 10⁻³ mol liter⁻¹. Samples of 1 ml were taken at time intervals and mixed with 3 ml of acetonitrile. 100 microliters of the collected samples were injected and disappearance of (2) and formation of (7) was followed by HPLC.

[7] = 0.01 m naoh buffer, 0.01 M sodium hydroxide at pH 12 and 37°C, read-out: half lives (t 1/2)
[8] = aqueous buffer, aqueous solution pH 12, 37°C, average of three runs, read-out: t 1/2 (Min) AQUEOUS SOLN, pH 12, 37°C
[9] = guinea pig ileum, against carbachol, average of two experiments (compounds 1 and 4: three), read-out: PA2 (converted)
[10] = pH 7.4, 20% rat liver homogenate, pH 7.4, 37°C, read-out: t 1/2 in liver homogenate
[11] = pH 7.4, rat liver homogenate, 37°C, average of three runs, read-out: t 1/2 (Min) RAT LIVER HOMOGENATE, 37°C
[12] = 0.01 N sodium hydroxide at pH 12.0, at 37°C
[13] = 0.01 n naoh buffer, 0.01 N sodium hydroxide at pH 12.0, at 37°C, read-out: half-life (t 1/2)
[14] = method of Example 19, quaternary methiodide soft esters, read-out: PA2 QUATERNARY AMINE (converted)

| Structure (SMILES) | half-life [1, 7] [min] | half-life [1, 8] [min] | kobsd HUMAN PLASMA, 37°C [2] | observed first order hydrolytic rate constants (K) ± S.E.M. [2] | half-life ([2]; human plasma at 37°C) [h] | Kb [3, 9] [nM] | Rates of hydrolysis in liver homogenate K ± S.E. ([4]; pH 7.4, 37°C) | half-life [4, 10] [min] | half-life [4, 11] [min] | observed First Order Hydrolytic Rate Constants (k) K ± S.E [1, 12] | half-life [1, 13] [min] | further results |
| --- | --- | --- | --- | --- | --- | --- | --- | --- | --- | --- | --- | --- |
| C[N+]1(C)C2CCC1CC(OC(=O)C(C(=O)OC1CCCCC1)c1ccccc1)C2 (racemic) [Compound 6, Cyclohexyl (±)-α-(carboxy)-8-methyl-8-azabicyclo-[3·2·1]oct-3-yl benzeneacetate methiodide] | 1.28 | 1.28 | 6.31 ± 0.8 x 10^-5 min^-1 | 6.31 ± 0.8 x 10^-5 min^-1 | 183 | 44.7 | 10.4 ± 0.23 x 10^-3 min^-1 | 66.8 | 66.8 | – | – | – |
| CN1C2CCC1CC(OC(=O)C(C(=O)O)c1ccccc1)C2 (racemic) [Compound 7, (±)-α-(carboxy)-8-methyl-8-azabicyclo-[3·2·1]oct-3-yl benzeneacetic acid] | 350 | 350 | – | – | – | 631 | – | – | – | – | – | half-life [5]: 331 ± 4.31 min |
| COC(=O)C(C(=O)OC1CC2CCC(C1)N2C)c1ccccc1 (racemic) [Compound 1, Methyl (±)-α-(carboxy)-8-methyl-8-azabicyclo[3·2·1]oct-3-yl-benzeneacetate] | – | 4.8 | – | – | – | 282 | – | – | – | 1.43 ± 0.12 x 10^-1 min^-1 | 4.8 | – |
| CCOC(=O)C(C(=O)OC1CC2CCC(C1)[N+]2(C)C)c1ccccc1 (racemic) [Compound 5, Ethyl (±)-α-(carboxy)-8-methyl-8-azabicyclo[3·2·1]oct-3-yl benzeneacetate methiodide] | – | 0.85 | – | – | 82.2 | 13.8 | 10.5 ± 0.28 x 10^-2 min^-1 | – | – | – | 0.85 | observed first order hydrolytic rate constants (K) ± S.E.M. ([2]; human plasma at 37°C, compound 2 average of 4 runs, the rest 3 runs): 14.1 ± 0.6 x 10^-5 min^-1; Kb [3, 14]: 14.1 nM; half-life at 6000 µM [4, 10]: 6.6 min; half-life at 6000 µM [4, 11]: 6.6 min |
| CC(C)OC(=O)C(C(=O)OC1CC2CCC(C1)[N+]2(C)C)c1ccccc1 (racemic) [VIc, isopropyl (±)-α-(carboxy)-8-methyl-8-azabicyclo[3·2·1]oct-3-yl-benzeneacetate methiodide] | – | – | – | – | – | – | – | – | – | – | – | Kb [3, 14]: 24.5 nM |
| CCOC(=O)C(C(=O)OC1CC2CCC(C1)N2C)c1ccccc1 (racemic) [Compound 2, Ethyl (±)-α-(carboxy)-8-methyl-8-azabicyclo[3·2·1]oct-3-yl-benzeneacetate] | – | 4.08 | 15.0 ± 0.3 x 10^-5 min^-1 | 15.0 ± 0.3 x 10^-5 min^-1 | 77.4 | 191 | 1.99 ± 0.996 x 10^-1 min^-1 | 3.48 | 3.48 | 16.9 ± 0.15 x 10^-2 min^-1 | 4.08 | half-life [6]: 4.19 ± 0.14 min |
| CN1C2CCC1CC(OC(=O)C(C(=O)OC1CCCCC1)c1ccccc1)C2 (racemic) [Compound 4, cyclohexyl (±)-α-(carboxy)-8-methyl-8-azabicyclo-[3.2.1]oct-3-yl-benzeneacetate] | 182 | 182 | 4.44 ± 0.4 x 10^-5 min^-1 | 4.44 ± 0.4 x 10^-5 min^-1 | 270 | 257 | 37.0 ± 0.3 x 10^-3 min^-1 | 18.7 | 18.7 | – | – | – |
| CN1[C@@H]2CC[C@H]1C[C@@H](OC(=O)C(CO)c1ccccc1)C2 (some centres unmarked) [Atropine, reference compound] | – | – | – | – | – | – | – | – | – | – | – | PA2 [3]: 8.29; PA2 TERTIARY AMINE [3]: 8.29 |
| CC(C)OC(=O)C(C(=O)OC1CC2CCC(C1)N2C)c1ccccc1 (racemic) [Compound 3, isopropyl (±)-α-(carboxy)-8-methyl-8-azabicyclo[3·2·1]oct-3-yl-benzeneacetate] | – | 22.8 | 6.27 ± 0.3 x 10^-5 min^-1 | 6.27 ± 0.3 x 10^-5 min^-1 | 186 | 28.2 | 97.2 ± 0.76 x 10^-3 min^-1 | 7.12 | 7.12 | 30 ± 0.77 x 10^-3 min^-1 | 22.8 | – |
